Laboratory results: patent US20230399341A1, “7-PHENYL SUBSTITUTED 2-AMINOQUINAZOLINE INHIBITORS OF HPK1” (MERCK SHARP & DOHME LLC, priority 2020, published 2023)

What follows are compounds tested against T1, Human HPK1, catalytic domain (Homo sapiens, UniProt Q92918) (assay: HPK1-SLP76 TR-FRET Assay). Conditions: 75 pM HPK1, ATP 10 uM, SLP76 10 nM, 30 min pre-incubation, 60 min reaction.
T1 sequence (Q92918 1-346): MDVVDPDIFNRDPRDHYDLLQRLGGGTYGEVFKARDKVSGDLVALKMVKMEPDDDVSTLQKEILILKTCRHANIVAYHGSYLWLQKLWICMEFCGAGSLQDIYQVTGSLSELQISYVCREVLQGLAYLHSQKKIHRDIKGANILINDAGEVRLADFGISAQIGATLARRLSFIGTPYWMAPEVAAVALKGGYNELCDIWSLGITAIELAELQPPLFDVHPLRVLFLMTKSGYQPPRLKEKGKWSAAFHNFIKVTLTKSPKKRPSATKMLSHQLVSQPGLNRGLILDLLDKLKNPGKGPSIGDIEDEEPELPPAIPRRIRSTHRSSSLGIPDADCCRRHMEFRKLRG
Type: biochemical
In the case of `CNC(=O)C1CCc2cc(Nc3ncc4cc(F)c(-c5cnc6c(c5C)NCCO6)cc4n3)ccc21` (single isomer, unassigned) [Compound 1-119, (R or S)-5-{[6-fluoro-7-(8-methyl-2,3-dihydro-1H-pyrido[2,3-b][1,4]oxazin-7-yl)quinazolin-2-yl]amino}-N-methyl-2,3-dihydro-1H-indene-1-carboxamide], the IC50 is reported as 1170 pM. Work on `Cc1c(-c2cc3nc(Nc4ccc(C(C)S(C)(=O)=O)cc4)ncc3cc2F)cnc2c1NCCO2` (single isomer, unassigned) [Compound 1-124, (R or S)-6-fluoro-7-(8-methyl-2,3-dihydro-1H-pyrido[2,3-b][1,4]oxazin-7-yl)-N-{4-[1-(methylsulfonyl)ethyl]phenyl} quinazolin-2-amine] yielded an IC50 of 41.1 pM. `Cc1c(-c2cc3nc(Nc4ccc(C5CCN(C)C5=O)cc4)ncc3cc2F)cnc2c1NCCO2` (single isomer, unassigned) [Compound 1-125, (R or S)-3-(4-{[6-fluoro-7-(8-methyl-2,3-dihydro-1H-pyrido[2,3-b][1,4]oxazin-7-yl)quinazolin-2-yl]amino}phenyl)-1-methylpyrrolidin-2-one] showed an IC50 of 60.6 pM. `Cc1c(-c2cc3nc(Nc4ccc(C(C)S(C)(=O)=O)cc4)ncc3cc2F)cnc2c1NCCO2` (single isomer, unassigned) [Compound 1-126, (R of S)-6-fluoro-7-(8-methyl-2,3-dihydro-1H-pyrido[2,3-b][1,4]oxazin-7-yl)-N-{4-[1-(methylsulfonyl)ethyl]phenyl} quinazolin-2-amine] showed an IC50 of 680 pM. In the case of `Cc1c(-c2cc3nc(Nc4ccc(C5CCN(C)C5=O)cc4)ncc3cc2F)cnc2c1NCCO2` (single isomer, unassigned) [Compound 1-127, (R of S)-3-(4-{[6-fluoro-7-(8-methyl-2,3-dihydro-1H-pyrido[2,3-b][1,4]oxazin-7-yl)quinazolin-2-yl]amino}phenyl)-1-methylpyrrolidin-2-one], the IC50 is reported as 949 pM. For `CC(=O)NC1CCc2cc(Nc3ncc4c(N)c(F)c(-c5cnc6c(c5C)NCCO6)cc4n3)ccc21` (single isomer, unassigned) [Compound 2-10, (S or R)—N-(5-((5-amino-6-fluoro-7-(8-methyl-2,3-dihydro-1H-pyrido[2,3-b][1,4]oxazin-7-yl)quinazolin-2-yl)amino)-2,3-dihydro-1H-inden-1-yl)acetamide], the IC50 was 125 pM. In the case of `CC(=O)NC1CCc2cc(Nc3ncc4c(N)c(F)c(-c5cnc6c(c5C)NCCO6)cc4n3)ccc21` (single isomer, unassigned) [Compound 2-11, (S or R)—N-(5-((5-amino-6-fluoro-7-(8-methyl-2,3-dihydro-1H-pyrido[2,3-b][1,4]oxazin-7-yl)quinazolin-2-yl)amino)-2,3-dihydro-1H-inden-1-yl)acetamide], the IC50 is reported as 82.1 pM. Compound `CC(=O)N1CCCC1c1ccc(Nc2ncc3c(N)c(F)c(-c4cnc5c(c4C)NCCO5)cc3n2)cc1` (single isomer, unassigned) [Compound 2-28, (R or S)-1-[2-(4-{[5-amino-6-fluoro-7-(8-methyl-2,3-dihydro-1H-pyrido[2,3-b][1,4]oxazin-7-yl)quinazolin-2-yl]amino}phenyl)pyrrolidin-1-yl]ethan-1-one] has an IC50 of 149 pM. For `CC(=O)N1CCCC1c1ccc(Nc2ncc3c(N)c(F)c(-c4cnc5c(c4C)NCCO5)cc3n2)cc1` (single isomer, unassigned) [Compound 2-29, (R or S)-1-[2-(4-{[5-amino-6-fluoro-7-(8-methyl-2,3-dihydro-1H-pyrido[2,3-b][1,4]oxazin-7-yl)quinazolin-2-yl]amino}phenyl)pyrrolidin-1-yl]ethan-1-one], the IC50 was 273 pM. Work on `COc1cc2c(cc1Nc1ncc3c(N)c(F)c(-c4cnc5c(c4C)NCCO5)cc3n1)C(C)N(C)CC2` (single isomer, unassigned) [Compound 2-35, (S or R)-6-fluoro-N^2-(6-methoxy-1,2-dimethyl-1,2,3,4-tetrahydroisoquinolin-7-yl)-7-(8-methyl-2,3-dihydro-1H-pyrido[2,3-b][14]oxazin-7-yl)quinazoline-2,5-diamine] yielded an IC50 of 152 pM. For `COc1cc2c(cc1Nc1ncc3c(N)c(F)c(-c4cnc5c(c4C)NCCO5)cc3n1)C(C)N(C)CC2` (single isomer, unassigned) [Compound 2-36, (S or R)-6-fluoro-N^2-(6-methoxy-1,2-dimethyl-1,2,3,4-tetrahydroisoquinolin-7-yl)-7-(8-methyl-2,3-dihydro-1H-pyrido[2,3-b][1,4]oxazin-7-yl)quinazoline-2,5-diamine], the IC50 was 101 pM. Work on `COc1cc(C2CCN(C)C2=O)ccc1Nc1ncc2c(N)c(F)c(-c3cnc4c(c3C)NCCO4)cc2n1` (single isomer, unassigned) [Compound 2-54, (R or S)-3-(4-{[5-amino-6-fluoro-7-(8-methyl-2,3-dihydro-1H-pyrido[2,3-b][1,4]oxazin-7-yl)quinazolin-2-yl]amino}-3-methoxyphenyl)-1-methylpyrrolidin-2-one] yielded an IC50 of 78.4 pM. `COc1cc(C(C)S(C)(=O)=O)ccc1Nc1ncc2c(N)c(F)c(-c3cnc4c(c3C)NCCO4)cc2n1` (single isomer, unassigned) [Compound 2-55, (R or S)-6-fluoro-N˜2˜-{2-methoxy-4-[1-(methylsulfonyl)ethyl]phenyl}-7-(8-methyl-2,3-dihydro-1H-pyrido[2,3-b][1,4]oxazin-7-yl)quinazoline-2,5-diamine] showed an IC50 of 1620 pM. For `COc1cc(C(C)S(C)(=O)=O)ccc1Nc1ncc2c(N)c(F)c(-c3cnc4c(c3C)NCCO4)cc2n1` (single isomer, unassigned) [Compound 2-56, (R or S)-6-fluoro-N˜2˜-{2-methoxy-4-[1-(methylsulfonyl)ethyl]phenyl}-7-(8-methyl-2,3-dihydro-1H-pyrido[2,3-b][1,4]oxazin-7-yl)quinazoline-2,5-diamine], the IC50 was 102 pM. With `COc1cc(C2CCN(C)C2=O)ccc1Nc1ncc2c(N)c(F)c(-c3cnc4c(c3C)NCCO4)cc2n1` (single isomer, unassigned) [Compound 2-57, (R or S)-3-(4-{[5-amino-6-fluoro-7-(8-methyl-2,3-dihydro-1H-pyrido[2,3-b][1,4]oxazin-7-ylquinazolin-2-yl]amino}-3-methoxyphenyl)-1-methylpyrrolidin-2-one] the IC50 was 905 pM. Compound `Cc1c(-c2cc3nc(Nc4ccc(C(C)S(C)(=O)=O)cc4)ncc3c(N)c2F)cnc2c1NCCO2` (single isomer, unassigned) [Compound 2-62, (R or S)-6-fluoro-7-(8-methyl-2,3-dihydro-1H-pyrido[2,3-b][1,4]oxazin-7-yl)-N˜2˜-{4-[1-(methylsulfonyl)ethyl]phenyl}quinazoline-2,5-diamine] has an IC50 of 61.2 pM. Work on `Cc1c(-c2cc3nc(Nc4ccc(C(C)S(C)(=O)=O)cc4)ncc3c(N)c2F)cnc2c1NCCO2` (single isomer, unassigned) [Compound 2-63, (R or S)-6-fluoro-7-(8-methyl-2,3-dihydro-1H-pyrido[2,3-b][1,4]oxazin-7-yl)-N˜2˜-{4-[1-(methylsulfonyl)ethyl]phenyl}quinazoline-2,5-diamine] yielded an IC50 of 86.1 pM. Work on `Cc1c(-c2cc3nc(Nc4ccc5c(c4)CN(C)C(C)C5)ncc3c(N)c2F)cnc2c1NCCO2` (single isomer, unassigned) [Compound 2-85, (R or S)—N2-(2,3-dimethyl-1,2,3,4-tetrahydroisoquinolin-7-yl)-6-fluoro-7-(8-methyl-2,3-dihydro-1H-pyrido[2,3-b][1,4]oxazin-7-yl)quinazoline-2,5-diamine] yielded an IC50 of 32.8 pM.
